Measurements from publication PMC7961587, “Novel Cell Permeable Polymers of N-Substituted L-2,3-Diaminopropionic Acid (DAPEGs) and Cellular Consequences of Their Interactions with Nucleic Acids” (International Journal of Molecular Sciences, 2021).
Square brackets hold non-standard residues; d marks the D form. Peptide text beside a SMILES is read from it. * marks the point of attachment. 5FAM = O=C1OC2(c3ccc(O)cc3Oc3cc(O)ccc32)c2ccc(C(=O)*)cc21; Acetyl(2-(HOCH2CH2OCH2CH2O)) = O=C(COCCOCCO)*; Dap = NC[C@H](N)C(=O)O; AEEA = NCCOCCOCC(=O)O

How the values were obtained:
HB2 and MDA-MB-231 cells = assay: Cell permeability and localization by fluorescence microscopy; format: cell-based, human; conditions: for Cell membrane crossing and localization, in words: 10 µM, fluorescence microscopy, HB2 or MDA-MB-231 cells; for Cell Permeablility (Target): cellular localization: fluorescence microscope Olympus IX51, 10 µM fluorescently labeled compound, DAPI nucleus staining
From the text: Preliminary cell permeability experiments facilitated the identification of three groups of compounds. […] The first group includes compound 4 and its derivatives (4a and 4b) and the family of compound 5 (5a and 5b). Compounds 4 and 5 are similar in structure and are composed of six residues of diaminopropionic acid (Dap) decorated with side chains of different lengths, terminating with the same highly positive guanidine moiety. […] Both compounds display unique cellular localization. […] We believe that such effective nuclear localisation of the first group of tested compounds is due to the effective mimicking of the nuclear localisation sequence (NLS). Such sequence consists of several positively charged lysines or arginines present in the protein structure. Additionally, side chain length of the polymer molecules seems to be a crucial factor that is optimal for compounds belonging to first group of polymers.
HB2 and MDA-MB-231 cells were seeded on 24-well plates at a density 1.5 × 10^4/well and 4 × 10^4/well, respectively, and incubated in 0.5 mL complete medium for 48 h. Subsequently, cells were washed with phosphate-buffered saline (PBS), and fresh medium with a fluorescently labeled peptide was added to each well at a concentration of 10 µM. For nucleus staining a DAPI solution (ThermoFisher Scientific, Waltham, MA, USA, […] R37606) in PBS was employed in conditions recommended by the supplier. After the incubation (2 h or 24 h), cells were washed thoroughly with PBS, and then a phenol red-free culture medium (FluoroBrite, DMEM) was added. Subsequently, the cells were examined using an Olympus IX51 fluorescence microscope (Olympus, Tokyo, Japan) using appropriate filters: blue for DAPI, green for FITC, and red TAMRA. Next, the images were merged and colocalization of the dyes’ emission were analyzed.

[1] = tested on: MDA-MB-231 or HB-2 cell lines; assay: Cytotoxicity assay: MTT; format: cell-based, human; conditions: 10 µM; MTT, Figure S2; HB-2 and MDA-MB-231
Experimental: Cell viability against cell-penetrating compounds was detected by the MTT assay. The HB2 and MDA-MB-231 cells were seeded into 96-well plates at a density of 5 × 10^3/well and 7 × 10^3/well, respectively, and incubated in complete medium (100 µL/well) for 48 h. […] Cells incubated in media without any test compounds were used as control. After incubation, medium containing test compounds was removed, and 225 µL fresh medium with 25 µL 3-(4,5-dimethylthiazol-2-yl)-2,5-diphenyltetrazolium bromide (MTT) was added (0.5 mg/mL per well). After incubation at 37 °C for 4 h, supernatants were removed, and the formazan crystals were dissolved overnight with dimethyl sulfoxide (DMSO; 150 µL/well). Results were analyzed using a microplate reader (SPECTROstar Nano, BMG LABTECH, Ortenberg, Germany) at 570 nm and 690 nm.

Compound | Cell membrane crossing and localization, in words (HB2 and MDA-MB-231 cells) | Cell Permeablility (Target): cellular localization (HB2 and MDA-MB-231 cells) | Cytotoxicity at the concentration used in the cell experiments, in words [1]
N=C(N)NCCOCCOCC(=O)NC[C@H](NC(=O)COCCOCCNC(=O)c1ccc2c(c1)C(=O)OC21c2ccc(O)cc2Oc2cc(O)ccc21)C(=O)N[C@@H](CNC(=O)COCCOCCNC(=N)N)C(=O)N[C@@H](CNC(=O)COCCOCCNC(=N)N)C(=O)N[C@@H](CNC(=O)COCCOCCNC(=N)N)C(=O)N[C@@H](CNC(=O)COCCOCCNC(=N)N)C(=O)N[C@@H](CNC(=O)COCCOCCNC(=N)N)C(=O)N[C@@H](CNC(=O)COCCOCCNC(=N)N)C(=O)N[C@@H](CNC(=O)COCCOCCNC(=N)N)C(=O)NCCOCCOCC(N)=O [compound 14a, 5′,6-FAM-O2Oc-[Dap(GO2)]8-O2Oc-NH2] | efficiently penetrate the membrane and localized in the nucleus | nucleus | 
NCCOCCOCC(=O)NC[C@H](NC(=O)COCCOCCNC(=O)c1ccc2c(c1)C(=O)OC21c2ccc(O)cc2Oc2cc(O)ccc21)C(=O)N[C@@H](CNC(=O)COCCOCCN)C(=O)N[C@@H](CNC(=O)COCCOCCN)C(=O)N[C@@H](CNC(=O)COCCOCCN)C(=O)N[C@@H](CNC(=O)COCCOCCN)C(=O)N[C@@H](CNC(=O)COCCOCCN)C(=O)NCCOCCOCC(N)=O [8a, 5′,6-FAM-O2Oc-[Dap(O2)]6-O2Oc-NH2] ({5FAM-AEEA}-[Dap](AEEA)[Dap](AEEA)[Dap](AEEA)[Dap](AEEA)[Dap](AEEA)[Dap](AEEA)[AEEA]-NH2) | did not cross the cell membrane |  | 
NC(=O)COCCOCCNC(=O)[C@H](CNC(=O)COCCOCCO)NC(=O)[C@H](CNC(=O)COCCOCCO)NC(=O)[C@H](CNC(=O)COCCOCCO)NC(=O)[C@H](CNC(=O)COCCOCCO)NC(=O)[C@H](CNC(=O)COCCOCCO)NC(=O)[C@H](CNC(=O)COCCOCCO)NC(=O)COCCOCCNC(=O)c1ccc2c(c1)C(=O)OC21c2ccc(O)cc2Oc2cc(O)ccc21 [9a, 5′,6-FAM-O2Oc-[Dap(HO2)]6-O2Oc-NH2] ({5FAM-AEEA}-[Dap](Acetyl(2-(HOCH2CH2OCH2CH2O)))[Dap](Acetyl(2-(HOCH2CH2OCH2CH2O)))[Dap](Acetyl(2-(HOCH2CH2OCH2CH2O)))[Dap](Acetyl(2-(HOCH2CH2OCH2CH2O)))[Dap](Acetyl(2-(HOCH2CH2OCH2CH2O)))[Dap](Acetyl(2-(HOCH2CH2OCH2CH2O)))[AEEA]-NH2) | did not cross the cell membrane |  | 
5′,6-FAM -O2Oc-(D-arg)6-O2Oc-NH2 [2a] | partially visible in the cytoplasm in the form of granules | cytoplasm | slightly cytotoxic
5′,6-FAM -O2Oc-(Har)6-O2Oc-NH2 [3a] | partially visible in the cytoplasm in the form of granules | cytoplasm | slightly cytotoxic
